Molecular target: 72 kDa type IV collagenase (Rattus norvegicus, UniProt P33436)
Test: Inhibition of gelatinolytic activity of MMP2 in rat lung homogenate after 40 mins by SDS-PAGE preincubated for 30 mins

Chain of 72 kDa type IV collagenase (P33436 whole entry): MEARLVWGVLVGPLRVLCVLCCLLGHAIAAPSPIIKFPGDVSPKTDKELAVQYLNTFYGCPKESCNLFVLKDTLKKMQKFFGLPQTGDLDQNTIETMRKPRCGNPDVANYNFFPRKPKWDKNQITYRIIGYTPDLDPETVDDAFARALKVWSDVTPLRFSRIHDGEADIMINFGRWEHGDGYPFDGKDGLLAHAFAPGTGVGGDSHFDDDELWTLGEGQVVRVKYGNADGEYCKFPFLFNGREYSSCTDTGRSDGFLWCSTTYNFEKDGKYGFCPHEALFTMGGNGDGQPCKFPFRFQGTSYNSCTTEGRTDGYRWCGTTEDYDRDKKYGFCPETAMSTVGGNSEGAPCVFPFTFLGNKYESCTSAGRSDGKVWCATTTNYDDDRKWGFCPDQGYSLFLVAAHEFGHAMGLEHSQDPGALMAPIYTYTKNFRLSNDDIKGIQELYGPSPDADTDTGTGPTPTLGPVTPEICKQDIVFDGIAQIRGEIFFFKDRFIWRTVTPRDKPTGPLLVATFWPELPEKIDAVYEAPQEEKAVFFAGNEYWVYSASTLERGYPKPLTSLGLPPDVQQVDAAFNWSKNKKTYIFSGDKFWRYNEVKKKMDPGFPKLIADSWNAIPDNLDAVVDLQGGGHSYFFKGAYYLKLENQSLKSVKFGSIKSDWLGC

Going from O=C(/C=C/c1ccc(O)c2c1[C@H](C(=O)O)[C@@H](c1ccc(O)c(O)c1)O2)O[C@H](Cc1ccc(O)c(O)c1)C(=O)O [LITHOSPERMIC ACID] to COc1cc(C[C@@H](OC(=O)/C=C/c2ccc(O)c3c2[C@H](C(=O)O)[C@@H](c2ccc(O)c(OC)c2)O3)C(=O)O)ccc1O [CLINOPODIC ACID H], the IC50 rises from 10.2 µM to > 100 µM. The first is the more potent here.

Going from O=C(/C=C/c1ccc2c(c1)O[C@@H](C(=O)O)[C@@H](c1ccc(O)c(O)c1)O2)O[C@H](Cc1ccc(O)c(O)c1)C(=O)O [CLINOPODIC ACID E] to O=C(/C=C/c1ccc2c(c1)O[C@H](C(=O)O)[C@H](c1ccc(O)c(O)c1)O2)O[C@H](Cc1ccc(O)c(O)c1)C(=O)O [CLINOPODIC ACID C], the IC50 falls from > 100 µM to 3.26 µM.

Going from O=C(/C=C/c1ccc(O)c(O)c1)O[C@H](Cc1ccc(O)c(O)c1)C(=O)O [ROSMARINIC ACID] to COC(=O)[C@@H](Cc1ccc(O)c(O)c1)OC(=O)/C=C/c1ccc(O)c(O)c1 [METHYL ROSMARINATE], the IC50 rises from 27.2 µM to > 100 µM. The first is the more potent here.

COc1cc(C[C@@H](OC(=O)/C=C/c2ccc3c(c2)O[C@@H](C(=O)O)[C@@H](c2ccc(O)c(O)c2)O3)C(=O)O)ccc1O [CLINOPODIC ACID F] and COc1cc(C[C@@H](OC(=O)/C=C/c2ccc(O)c(O)c2)C(=O)O)ccc1O [CLINOPODIC ACID B] cannot be ordered by IC50: > 100 µM for the first, > 100 µM for the second.

O=C(/C=C/c1ccc(O)cc1)O[C@H](Cc1ccc(O)c(O)c1)C(=O)O [CLINOPODIC ACID A] was tested, and the IC50 was > 100 µM.

— ChEMBL document CHEMBL1154248, “Matrix metalloproteinase-2 inhibitors from Clinopodium chinense var. parviflorum” (J Nat Prod, 2009)
